Values after ≈ are worked out from the molar mass of the structure shown.

The test system of the experiment is herpes simplex virus type 2. Nature of the experiment: in vitro antiviral testing against herpes simplex virus type 2 (MIC by standard serial dilution). The class given is cell-based. Conditions: Human alphaherpesvirus 2, herpes simplex virus type 2 (herpes 2), read-out: minimal inhibitory concentration (MIC). As for the experimental part: They are useful in combatting viruses present on inanimate surfaces as well as viral infections in animal organisms. […] The MIC values were determined by standard serial dilution procedures.

In the case of `CCc1noc(CC)c1CCCCCCOc1ccc(OC)cc1Cl` [Example 1, 4-[6-(2-Chloro-4-methoxyphenoxy)hexyl]-3,5-diethylisoxazole], the MIC came out at 6 µg/mL (≈ 16.4 µM).

On to `CCc1noc(CC)c1Cc1ccc(C)cc1` [Example 2, 3,5-Diethyl-4-[(4-methylphenyl)methyl]isoxazole], for which the MIC turned out to be 1.5 µg/mL (≈ 6.54 µM).

Regarding `CCc1noc(CC)c1Cc1ccc(OC)cc1` [Example 3, 3,5-Diethyl-4-[(4-methoxyphenyl)methyl]isoxazole], the MIC amounted to 25 µg/mL (≈ 102 µM).

Consider `CCc1noc(CC)c1Cc1ccc(OC)cc1Cl` [Example 4, 4-[(2-Chloro-4-methoxyphenyl)methyl]-3,5-diethylisoxazole], for which the MIC is 12 µg/mL (≈ 42.9 µM).

As to `CCc1noc(CC)c1CCCCCCOc1ccc(OC)cc1[N+](=O)[O-]` [Example 5, 3,5-Diethyl-4-[6-(4-methoxy-2-nitrophenoxy)hexyl]isoxazole], the MIC was determined as 3 µg/mL (≈ 7.97 µM).

In the case of `CCc1noc(CC)c1CCCCCCOc1ccc(Br)cc1` [Example 6, 4-[6-(4-Bromophenoxy)hexyl]-3,5-diethylisoxazole], the MIC came to 12 µg/mL (≈ 31.6 µM).

With `CCc1noc(CC)c1CCCCOc1ccc(OC)cc1Cl` [Example 7, 4-[4-(2-Chloro-4-methoxyphenoxy)butyl]-3,5-diethylisoxazole], the MIC was 6 µg/mL (≈ 17.8 µM).

Consider `CCc1noc(CC)c1CCCCCCCOc1ccc(OC)cc1Cl` [Example 8, 4-[7-(2-Chloro-4-methoxyphenoxy)heptyl]-3,5-diethylisoxazole], for which the MIC was > 25 µg/mL.

The values above are taken from patent US4268678A, “4-(Arylaliphatic)isoxazoles” (Sterling Drug Inc., priority 1979, dated 1981).
